In the supplement of paper PMC4862054:
One block for each molecule: values may come before it.

Legend:
Settings in all cases: 72 h
[1] = test system: HDQ-P1
Outline: (§1)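 EC50 was fitted from dose-response curves and censored at the highest concentration tested. To build those curves, breast cancer cell lines (20 µl suspension) were seeded into 384-well plates containing compound at 5 concentrations in 10-fold steps over a compound-specific 10,000-fold range and incubated for 72 h. Readouts were CellTox Green fluorescence (485/520 nm) for cell death and then CellTiter-Glo luminescence for viability, with each plate normalised to 0.1 % DMSO and a positive kill control.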

[2] = test system: MDA-MB-468
Outline: as §1

[3] = test system: CAL-120
Outline: as §1

[4] = test system: CAL-51
Outline: as §1

[5] = test system: MDA-MB-231
Outline: as §1

[6] = test system: DU-4475
Outline: as §1

[7] = test system: MDA-MB-436
Outline: as §1

[8] = test system: HCC1599
Outline: as §1

[9] = test system: SK-BR-3
Outline: as §1

[10] = test system: BT-549
Outline: as §1

[11] = test system: CAL-85-1
Outline: as §1

[12] = test system: HCC1143
Outline: as §1

[13] = test system: Hs578T
Outline: as §1

[14] = test system: HCC1937
Outline: as §1

[15] = test system: MCF-10A
Outline: as §1

[16] = test system: BT-474
Outline: as §1

[17] = test system: MDA-MB-453
Outline: as §1

[18] = test system: CAL-148
Outline: as §1

[19] = test system: MFM-223
Outline: as §1

[20] = test system: HDQ-P1; remark: listed apart in the source
Outline: (§2)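 Compound dissolved in 5 µl medium was placed in 384-well plates before 20 µl of breast cancer cell suspension was added, and the plates were incubated for 72 h. Cells then received 2.5 µl CellTiter-Blue for 2 h at 37 °C, and fluorescence was read at 560/590 nm. EC50 values come from percent-inhibition dose-response fits that were censored at the highest concentration, with plates normalised to vehicle and a positive kill control and rows with a zero drug sensitivity score excluded.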

[21] = test system: HDQ-P1; remark: listed apart in the source
Outline: as §1

[22] = test system: CAL-120; remark: listed apart in the source
Outline: as §1

[23] = test system: MDA-MB-231; remark: listed apart in the source
Outline: as §1

[24] = test system: MDA-MB-436; remark: listed apart in the source
Outline: as §1

[25] = test system: HCC1599; remark: listed apart in the source
Outline: as §1

[26] = test system: HCC1143; remark: listed apart in the source
Outline: as §1

[27] = test system: MCF-10A; remark: listed apart in the source
Outline: as §1

[28] = test system: CAL-148; remark: listed apart in the source
Outline: as §1

[29] = test system: MFM-223; remark: listed apart in the source
Outline: as §1

[30] = test system: MDA-MB-468; remark: listed apart in the source
Outline: as §2

[31] = test system: CAL-120; remark: listed apart in the source
Outline: as §2

[32] = test system: MDA-MB-231; remark: listed apart in the source
Outline: as §2

[33] = test system: MDA-MB-436; remark: listed apart in the source
Outline: as §2

[34] = test system: HCC1599; remark: listed apart in the source
Outline: as §2

[35] = test system: SK-BR-3; remark: listed apart in the source
Outline: as §2

[36] = test system: BT-549; remark: listed apart in the source
Outline: as §2

[37] = test system: HCC1143; remark: listed apart in the source
Outline: as §2

[38] = test system: Hs578T; remark: listed apart in the source
Outline: as §2

[39] = test system: HCC1937; remark: listed apart in the source
Outline: as §2

[40] = test system: BT-474; remark: listed apart in the source
Outline: as §2

[41] = test system: MFM-223; remark: listed apart in the source
Outline: as §2

[42] = test system: HCC1937; remark: listed apart in the source
Outline: as §1

[43] = test system: MDA-MB-453; remark: listed apart in the source
Outline: as §1

EC50, CellTiter-Glo [2]: 759 nM
EC50, CellTiter-Glo [5]: 172 nM
EC50, CellTiter-Glo [7]: 308 nM
EC50, CellTiter-Glo [8]: 183 nM
EC50, CellTiter-Glo [9]: 203 nM
EC50, CellTiter-Glo [10]: 373 nM
EC50, CellTiter-Glo [12]: 558 nM
EC50, CellTiter-Glo [14]: 344 nM
EC50, CellTiter-Glo [16]: 233 nM
EC50, CellTiter-Glo [17]: 66.3 nM
EC50, CellTiter-Blue viability [30]: 797 nM
EC50, CellTiter-Blue viability [32]: 303 nM
EC50, CellTiter-Blue viability [33]: 350 nM
EC50, CellTiter-Blue viability [34]: 632 nM
EC50, CellTiter-Blue viability [35]: 120 nM
EC50, CellTiter-Blue viability [36]: 569 nM
EC50, CellTiter-Blue viability [37]: 829 nM
EC50, CellTiter-Blue viability [39]: 190 nM
EC50, CellTiter-Blue viability [40]: 249 nM
SMILES: C=CCn1c(=O)c2cnc(Nc3ccc(N4CCN(C)CC4)cc3)nc2n1-c1cccc(C(C)(C)O)n1 [MK1775]
EC50, CellTiter-Glo [1]: 326 nM
EC50, CellTiter-Glo [3]: 740 nM
EC50, CellTiter-Glo [4]: 380 nM
EC50, CellTiter-Glo [6]: 1740 nM
EC50, CellTiter-Glo [11]: 294 nM
EC50, CellTiter-Glo [13]: 275 nM
EC50, CellTiter-Glo [15]: 621 nM
EC50, CellTiter-Glo [18]: 190 nM
EC50, CellTiter-Glo [19]: 250 nM
EC50, CellTiter-Blue viability [20]: 318 nM
EC50, CellTox Green [21]: 467 nM
EC50, CellTox Green [22]: 1380 nM
EC50, CellTox Green [23]: 203 nM
EC50, CellTox Green [24]: 69.7 nM
EC50, CellTox Green [25]: 54.1 nM
EC50, CellTox Green [26]: 5090 nM
EC50, CellTox Green [27]: 1270 nM
EC50, CellTox Green [28]: 143 nM
EC50, CellTox Green [29]: 267 nM
EC50, CellTiter-Blue viability [31]: 301 nM
EC50, CellTiter-Blue viability [38]: 349 nM
EC50, CellTiter-Blue viability [41]: 182 nM

EC50, CellTiter-Glo [2]: 446 nM
EC50, CellTiter-Glo [5]: 2760 nM
EC50, CellTiter-Glo [7]: 7930 nM
EC50, CellTiter-Glo [8]: 10600 nM
EC50, CellTiter-Glo [9]: 8890 nM
EC50, CellTiter-Glo [10]: 1010 nM
EC50, CellTiter-Glo [12]: 13200 nM
EC50, CellTiter-Glo [14]: 2460 nM
EC50, CellTiter-Glo [16]: 7660 nM
EC50, CellTiter-Glo [17]: 3720 nM
SMILES: O=[N+]([O-])c1ccc2c(c1)S(=O)(=O)C=C2 [Stattic]
EC50, CellTiter-Glo [1]: 12700 nM
EC50, CellTiter-Glo [3]: 11000 nM
EC50, CellTiter-Glo [4]: 1540 nM
EC50, CellTiter-Glo [6]: 16300 nM
EC50, CellTiter-Glo [11]: 1630 nM
EC50, CellTiter-Glo [13]: 3130 nM
EC50, CellTiter-Glo [15]: 17400 nM
EC50, CellTiter-Glo [18]: 4640 nM
EC50, CellTiter-Glo [19]: 2730 nM
EC50, CellTox Green [21]: 34000 nM
EC50, CellTox Green [22]: 34300 nM
EC50, CellTox Green [23]: 5150 nM
EC50, CellTox Green [24]: 14400 nM
EC50, CellTox Green [26]: 13800 nM
EC50, CellTox Green [42]: 349 nM
EC50, CellTox Green [27]: 1190 nM
EC50, CellTox Green [43]: 27400 nM
EC50, CellTox Green [28]: 3870 nM
EC50, CellTox Green [29]: 1230 nM

EC50, CellTiter-Glo [2]: 1200 nM
EC50, CellTiter-Glo [5]: 3170 nM
EC50, CellTiter-Glo [8]: 3990 nM
EC50, CellTiter-Glo [9]: 3470 nM
EC50, CellTiter-Glo [10]: 7340 nM
EC50, CellTiter-Glo [12]: 4590 nM
EC50, CellTiter-Glo [14]: 6280 nM
EC50, CellTiter-Glo [16]: 3760 nM
EC50, CellTiter-Glo [17]: 1180 nM
EC50, CellTiter-Blue viability [30]: 1480 nM
EC50, CellTiter-Blue viability [32]: 3110 nM
EC50, CellTiter-Blue viability [34]: 3270 nM
EC50, CellTiter-Blue viability [35]: 617 nM
EC50, CellTiter-Blue viability [36]: 2860 nM
EC50, CellTiter-Blue viability [37]: 2590 nM
EC50, CellTiter-Blue viability [39]: 2480 nM
EC50, CellTiter-Blue viability [40]: 2290 nM
SMILES: O=C(CCCCCCC(=O)Nc1ccccc1)NO [Vorinostat]
EC50, CellTiter-Glo [1]: 8320 nM
EC50, CellTiter-Glo [3]: 8470 nM
EC50, CellTiter-Glo [4]: 2180 nM
EC50, CellTiter-Glo [6]: 2300 nM
EC50, CellTiter-Glo [11]: 2320 nM
EC50, CellTiter-Glo [13]: 6670 nM
EC50, CellTiter-Glo [15]: 8980 nM
EC50, CellTiter-Glo [18]: 2140 nM
EC50, CellTiter-Glo [19]: 5670 nM
EC50, CellTox Green [22]: 6840 nM
EC50, CellTox Green [23]: 1720 nM
EC50, CellTox Green [26]: 6130 nM
EC50, CellTox Green [28]: 8260 nM
EC50, CellTiter-Blue viability [31]: 1720 nM
EC50, CellTiter-Blue viability [38]: 3080 nM
EC50, CellTiter-Blue viability [41]: 2050 nM
